As a reminder, the melting point is the temperature, or range, at which the solid turns liquid.

The results in this text go back to a melting point compilation (Tetko et al.; mined from patent text by program, amines drawn as free bases though some values may be those of a salt).

The structures appear in SMILES notation. Some results are limits rather than exact numbers.

Regarding `CCCCCCCCCCCCCCCC(=O)Oc1ccc(C(O)CNCCc2ccc(OC)c(OC)c2)cc1` (centres undefined), the melting point was in the range of 79 to 81 °C.
`NC(=O)/C=C/c1cnoc1-c1ccccc1` came in with a melting point of 194 to 196 °C.
`CC(=O)c1ccc(C(=O)N2Cc3cccn3Cc3ccccc32)cc1` showed a melting point of 135 to 137 °C.
With `Cc1c(Br)cc(C(C)(C)C)c(O)c1-c1nc2cc(OC(F)(F)F)ccc2[nH]1`, the melting point is 235 to 236 °C.
`CC(C)=CCNC(=O)Cn1ccnc1[N+](=O)[O-]` showed a melting point of 174 to 176 °C.
Consider `O=Cc1cc(C#Cc2ccccc2)c(C=O)cc1C#Cc1ccccc1`, for which the melting point was in the range of 179 to 181 °C.
For `C[C@@](O)(C(=O)Nc1ccc(S(=O)(=O)c2ccccc2S(C)(=O)=O)cc1Cl)C(F)(F)F`, the melting point was in the range of 114 to 116 °C.
For `COc1ccc2ccccc2c1CC(NC(C)=O)C(=O)O` (centres undefined), the melting point turned out to be 201 °C.
On to `CCOC(=O)N(c1cccc(C(F)(F)F)c1)c1ccccc1N=NC(NC(=O)CCl)(C(=O)OCC)C(=O)OCC`, for which the melting point lay in the range of 76 to 79 °C.
With `N#Cc1cc(C(F)(F)F)cc(C(=O)Nc2ccc(Cl)c(Cl)c2)c1N1CCCCC1` the figure was 175 °C; with `N#Cc1cc(O)c(O)c(O)c1`, 219 °C; with `O=C(O)C(=O)CC(=O)c1cccn1Cc1ccc(F)c(F)c1`, 145 to 148 °C.
As for `CCn1cnc2c(C#N)nc(Cl)cc21`, the melting point is 138 °C.
In turn, `COc1ccc(C(=O)Nc2ccc3ccc(Oc4ccccc4)nc3n2)cn1` showed a melting point of 115 to 120 °C.
Turning to `COc1cc(NC(=O)CCCCCN2CCCN(C)CC2)c2nccc(C)c2c1`, the melting point is 74 to 77 °C.
For `CNc1c(N)cnn1C`, the melting point lay within 185 to 188 °C.
To `FC(F)(F)C1(c2cc(Cl)cc(Cl)c2)CC(c2cnc(Cl)c(Cl)c2)=NO1` (centres undefined) belongs 155 to 157 °C; to `COc1ccc(Cl)c(Oc2c(C)nc(-c3ncccn3)nc2Cl)c1`, 110 °C.
Molecule `O=C(O)c1ccc(S(=O)(=O)Oc2ccc(-c3ccc(-c4c(Cc5ccccc5)oc5ccccc45)cc3)cc2[N+](=O)[O-])cc1O` showed a melting point of 75 °C.
Turning to `CN(C)c1ccc2nc(N)c(C#N)c(NCc3ccco3)c2c1`, the melting point was found to be 235 °C.
As for `OCC1CCCc2c1ncn2C(c1ccccc1)(c1ccccc1)c1ccccc1` (centres undefined), the melting point lay in the range of 168 to 170 °C.
With `Oc1ccc2c(c1)CCCC(c1ccccc1)=C2c1ccc(OCCCCCI)cc1` the figure was 192 to 193 °C; with `COc1ccc(C2=NN(C3CCN(C(=O)CN4C(=O)CCC4=O)CC3)C(=O)C(C)(C)C2)c2c1OC(C)(C)C2`, 240 to 241 °C; with `Cn1c(=O)nc(-c2ccccc2)c2cc3c(cc21)OCO3`, 253 to 255 °C.
Turning to `CC(C)Nc1cccnc1N1CCN(C(=O)c2ccc(C(=O)O)cc2)CC1`, the melting point was in the range of 215 to 217 °C.
With `O=Cc1c(O)ccc2cccnc12` the figure was 127 to 130 °C.
With `c1ccc(CN2CCN(c3nc4cccc5c4n3CCC5)CC2)cc1` the figure was 157 to 158 °C; with `COCN1C(C)=C(C(=O)OC)C(c2ccccc2)C(C(=O)OCOC(=O)C(C)(C)C)=C1C` (single isomer, unassigned; (+)), 80 to 81 °C.
`COc1ccc2c(c1)C(c1ccc(Cl)cc1)=NC(CC(=O)NC1CCCCC1)c1nnc(C)n1-2` (centres undefined): the melting point was greater than 260 °C.
In turn, `CC(C)c1nn(-c2ccc(C(F)(F)F)cn2)cc1CCCCO` yielded a melting point of 67 to 68 °C.
`CCOC(=O)C(=CNC1CC1)C(=O)c1ccc(F)c(Cl)c1F` gave a melting point of 101 to 104 °C.
On to `O=C(NCCC[C@H]1OC[C@H](c2cccc3cc(OCC4CC4)ccc32)CO1)Oc1ccc(Cl)cc1`, for which the melting point fell in the range of 159 to 162 °C.
`Nc1cnc(Oc2ccc(Cl)c3c2CCCC3)c(Cl)c1`: the melting point was 130 to 132 °C.
`Cc1nn(-c2cc3nc(S(C)=O)sc3cc2F)c(=O)n1C` (centres undefined) displayed a melting point of 199 to 201 °C.
Molecule `CN1C(=O)C(C2=COc3ccccc3O2)=C(c2c[nH]c3ccc(F)cc23)C1=O` gave a melting point of 229 °C.
`CC(=O)C(Cc1ccccc1)Nc1nc2ccc(C(C)C)cc2s1` (centres undefined) came in with a melting point of 107 to 110 °C.
As to `Cc1cc(C=CC#N)cc(C(=O)c2c(C(C)C)c(=O)[nH]c(=O)n2CC2CC2)c1`, the melting point was in the range of 225 to 226 °C.
In turn, `C#Cc1cccc(Nc2nc(Nc3cccc(C#C)c3)nc(-c3ccccc3)n2)c1` yielded a melting point of 210 °C.
The molecule `CCCc1c(C(=O)OCC)c2c3c(ccc2n1C)OC1c2ccc(OC)cc2CCN1C3` (centres undefined) gave a melting point of 150 to 151 °C.
As to `Clc1ccc(-c2onc3c(CBr)cccc23)c(Cl)c1`, the melting point fell in the range of 108 to 110 °C.
`COC1(OCCCCl)C=CC(C(=O)O)=CC1` (centres undefined) gave a melting point of 157 to 159 °C.
`Oc1nn(-c2ccccc2)nc1Cl` had a melting point of 135 to 140 °C.
As to `N#Cc1ccc(N(CCOc2ccc(OCc3ccccc3)cc2)n2cnnc2)cc1`, the melting point fell in the range of 160 to 162 °C.
In the case of `CN(c1ccccc1[N+](=O)[O-])S(C)(=O)=O`, the melting point was 144 to 145 °C.
With `COC(=O)C1CN(C(=O)c2ccccc2-n2cccn2)c2ccc(C)cc2CN1S(=O)(=O)c1ccc(OC)cc1` (centres undefined) the figure was 240 to 242 °C; with `N=C(N)c1ccc2ncn(CC(=O)N3CCC(Cc4ccccc4)CC3)c2c1`, 68 to 70 °C; with `O=C1N[C@@H](CC2CCCCC2)[C@H]1O`, 147 to 148 °C.
The molecule `O=C(Nc1cc(Cl)ccc1Oc1ccc(Cl)cc1)c1ccncc1` registered a melting point of 214 to 215 °C.
In the case of `CCN1CCc2ccc(Nc3ncc(Cl)c(Nc4ccccc4C(=O)NC)n3)cc2CC1`, the melting point is 201 °C.
To `N#Cc1cc([N+](=O)[O-])ccc1N1CCC(N2CCCCC2)CC1` belongs 134 to 135 °C.
`Nc1sc2c(c1C(=O)c1ccc(Br)cc1)CCN(C(=O)Nc1ccccc1)C2` returned a melting point of 89 to 90 °C.
With `CC(C)(C)OC(=O)NCc1cccc(C(=O)O)c1`, the melting point was 127 to 128 °C.
With `CCC(C)NC1=NS(=O)(=O)c2cc([N+](=O)[O-])ccc2N1` (centres undefined) the figure was 287 to 288 °C.
`NC(=O)c1nc(-c2ccccc2)n2c1CN=C(c1ccccc1F)c1cc(Cl)ccc1-2`: the melting point is 260 to 262 °C.
For the molecule `N#Cc1cc2sccc2nc1I`, the melting point lay in the range of 190 to 191 °C.
Consider `COC(c1nnc2n1-c1ccc(Cl)cc1C(c1ccccc1)=NC2)C1COC(C)(C)O1` (centres undefined), for which the melting point is 130 to 134 °C.
In turn, `CC(C)(C)OC(=O)/C=C1/CCCCC1n1nc(-c2c(-c3ccccc3)nn3ccccc23)ccc1=O` (centres undefined) yielded a melting point of 110 to 116 °C.
Take `O=C(O)CC1c2ccccc2CCN1S(=O)(=O)c1ccc2ccccc2c1` (centres undefined): the melting point was 132 °C.
`CCOCc1nc2c(N)nc3cc(OCc4ccc(OC)cc4)ccc3c2n1CC(C)C` yielded a melting point of 181 to 182 °C.
With `CCOC(=O)NN=C(C)c1cccc(C(F)(F)F)c1` the figure was 94 to 96 °C; with `CC(C)(C)OC(=O)NCCc1c[nH]c2ccc(CO)cc12`, 129 to 130 °C; with `CN1CCN(CCCc2cc3ccccc3c(=O)[nH]2)CC1`, 120 to 122 °C.
With `Clc1ccc(Cn2cc(CCn3ccnc3)c3ccccc32)cc1` the figure was 78 to 80 °C.
To `CC1OC(=O)c2c(O)cccc21` (centres undefined) belongs 107 to 108 °C.
In turn, `O=Cc1ccc(Oc2ccc3c(c2)OCO3)cc1` returned a melting point of 67 to 70 °C.
On to `CN1CCC(C2c3cccc4c3N(CC4)c3ccccc3N2C(=O)OCC(Cl)(Cl)Cl)CC1` (centres undefined), for which the melting point was in the range of 160 to 162 °C.
On to `CCC(CC)(CCCS(N)(=O)=O)COc1nn2ncnc2cc1C`, for which the melting point fell in the range of 157 to 158 °C.
With `CCOC(=O)c1cc2c(C)ccc3c2n1CCO3` the figure was 101 to 102 °C; with `N#CNC=Nc1ccc(-c2ccccn2)cc1`, 150 to 151 °C.
For the molecule `O=c1ccn(-c2cccc(C(F)(F)F)c2)nc1-c1ccnn1-c1cccc(F)c1`, the melting point is 104 to 105 °C.
For the molecule `c1cc(CN2CCCCC2)cc(OCCNc2nc3ccccc3s2)c1`, the melting point is 141 to 142 °C.
In the case of `O=C(c1ccc2nonc2c1)N1CC2CCC1C2` (centres undefined), the melting point lay within 92 to 93 °C.
To `CC(C)n1cc(-c2nc(C(N)=O)c(N)nc2-c2ccc(F)c(F)c2)ccc1=O` belongs 226 °C.
The molecule `CCCOc1nn(Cc2ccc(OCc3nc(-c4ccccc4)oc3C)cc2)cc1CCC(=O)O` had a melting point of 108 to 109 °C.
Consider `CSc1cccc2c1CC(=O)N2`, for which the melting point was 198 °C.
For the molecule `CCOC(=O)COc1cccc(-c2nc3ncccc3[nH]2)c1`, the melting point stood at 158 °C.
The molecule `O=C(O)c1ccc(OCCCn2ccnc2)cc1` showed a melting point of 218 °C.
With `O=C(NC(=S)c1c(Cl)cccc1Cl)Nc1ccc(Cl)c(Cl)c1` the figure was 168 °C; with `CC(=O)OCC1OC(n2cc(C)c(=O)[nH]c2=O)CC1N=[N+]=[N-]` (centres undefined), 96 to 98 °C.
With `O=C(O)c1ccc(F)cc1NC(=O)C(F)(F)F` the figure was 166 to 168 °C; with `CCCCCCCCCCCCCCCCNc1ccc(C(=O)OCC(CO)OC(C)=O)cc1` (centres undefined), 67 °C; with `CCC(C)=NOC(=NC1CCCCC1)N(C(=O)c1ccccc1)C1CCCCC1`, 74 to 78 °C.
In the case of `NS(=O)(=O)N1CC2(CCN(C(=O)Nc3nnc(-c4ccccc4)s3)CC2)c2ccccc21`, the melting point was greater than 300 °C.
With `O=C1NCC(CN2C(=O)C3(COc4cc5c(cc43)CCO5)c3ccccc32)O1` (centres undefined) the figure was 197 to 198 °C; with `CCOC(=O)C(=CNc1ccnn1Cc1ccco1)C(=O)c1ccccc1`, 75 to 77 °C; with `COC(=O)c1ccc(CNC(C)=O)cc1S(=O)(=O)NC(=O)Nc1nc(OC)cc(OC)n1`, 149 to 150 °C.
With `COc1ccc(C2=NC(C)(C)C(c3cccs3)C2)cc1` (centres undefined), the melting point worked out at 84 °C.
Consider `COC(=O)c1cc(C(=O)N2CCC(C(N)=O)CC2)c2cc(Cc3ccc(F)cc3)cnc2c1O`, for which the melting point was in the range of 235 to 238 °C.
`CCCCCCCCCCSc1ccc(Br)cc1`: the melting point lay within 37 to 39 °C.
